Results: patent US8158655B2, “Sulfonamide derivatives” (Hoffmann-La Roche Inc., priority 2007, dated 2012)
Like-named read-outs stand apart in the source and are kept apart here.

Target: T1, Chymase purified from human skin mast cells (Homo sapiens, UniProt P23946)
T1 construct: Chymase purified from human skin mast cells was obtained from Calbiochem; purchased Calbiochem (Merck Biosciences, San Diego, Calif., USA); host or cells: human skin mast cells (natural source)
T1 sequence (P23946 22-247): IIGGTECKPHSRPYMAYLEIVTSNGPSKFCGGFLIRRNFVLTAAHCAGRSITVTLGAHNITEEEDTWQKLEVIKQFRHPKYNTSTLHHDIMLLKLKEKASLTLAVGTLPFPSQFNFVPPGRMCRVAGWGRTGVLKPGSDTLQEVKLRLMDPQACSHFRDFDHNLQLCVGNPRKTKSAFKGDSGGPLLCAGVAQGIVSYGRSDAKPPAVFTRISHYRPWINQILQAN
Assay: chymase peptide substrate assay (AAPF-AMC fluorescence)
Type: biochemical
Method: The peptide was synthesized with a purity of 95% from Bachem, Bubendorf, Switzerland). Chymase purified from human skin mast cells was obtained from Calbiochem (Merck Biosciences, San Diego, Calif., USA). The assay buffer was 0.15 M NaCl, 0.05M, Tris HCl, 0.05% CHAPS (3-[(3-Cholamidopropyl)-dimethylammonio]-1-propane sulphonate), 0.1 mg/ml Heparin (Heparin sodium, Sigma, porcine intestinal mucosa), 0.02 mM AAPF-substrate, 1 nM Chymase at pH 7.4. The assay was performed in 96-well plates (Packard Optiplate), with a 0.05 ml volume at room temperature. Chymase activity was indicated by the initial rate of increase in fluorescence at 340/440 nm (excitation/emission) from free 7-amino-4-methylcoumarin released from the substrate. Inhibition of the activity by inhibitory compounds was read after 30 min pre-incubation with the chymase at room temperature in assay buffer without AAPF-substrate. The assay was then started by addition of the indicated concentration of AAPF-substrate.

[1] = 0.02 mM AAPF-substrate, 1 nM Chymase, pH 7.4, room temperature, 30 min pre-incubation, read-out: IC50

Row | Structure (SMILES) | IC50 [µM] | IC50 [1] [µM]
1 | Cc1c(S(=O)(=O)Nc2ccc(-c3ccncc3)cc2C(F)(F)F)sc2ccc(F)cc12 [Example 2, 5-Fluoro-3-methyl-benzo[b]thiophene-2-sulfonic acid(4-pyridin-4-yl-2-trifluoromethyl-phenyl)-amide] | 0.035 | 
2 | CCc1cc(-c2ccncc2)ccc1NS(=O)(=O)c1sc2ccc(F)cc2c1C [Example 16, 5-Fluoro-3-methyl-benzo[b]thiophene-2-sulfonic acid(2-ethyl-4-pyridin-4-yl-phenyl)-amide] |  | 0.106
3 | Cc1c(S(=O)(=O)Nc2ccc(C3CCNCC3)cc2S(C)(=O)=O)sc2ccc(F)cc12 [Example 21, 5-Fluoro-3-methyl-benzo[b]thiophene-2-sulfonic acid(2-methanesulfonyl-4-piperidin-4-yl-phenyl)-amide] |  | 0.003
